Consider 18 compounds from ChEMBL document CHEMBL5291721, “A preclinical secondary pharmacology resource illuminates target-adverse drug reaction associations of marketed drugs” (Nat Commun, 2023).

SMILES strings stand for the structures. A value given as a limit tells only on which side of the number the result lay.

The target of test [1] is T1, Progesterone receptor (Homo sapiens, UniProt P06401).
T1 sequence (P06401 whole entry): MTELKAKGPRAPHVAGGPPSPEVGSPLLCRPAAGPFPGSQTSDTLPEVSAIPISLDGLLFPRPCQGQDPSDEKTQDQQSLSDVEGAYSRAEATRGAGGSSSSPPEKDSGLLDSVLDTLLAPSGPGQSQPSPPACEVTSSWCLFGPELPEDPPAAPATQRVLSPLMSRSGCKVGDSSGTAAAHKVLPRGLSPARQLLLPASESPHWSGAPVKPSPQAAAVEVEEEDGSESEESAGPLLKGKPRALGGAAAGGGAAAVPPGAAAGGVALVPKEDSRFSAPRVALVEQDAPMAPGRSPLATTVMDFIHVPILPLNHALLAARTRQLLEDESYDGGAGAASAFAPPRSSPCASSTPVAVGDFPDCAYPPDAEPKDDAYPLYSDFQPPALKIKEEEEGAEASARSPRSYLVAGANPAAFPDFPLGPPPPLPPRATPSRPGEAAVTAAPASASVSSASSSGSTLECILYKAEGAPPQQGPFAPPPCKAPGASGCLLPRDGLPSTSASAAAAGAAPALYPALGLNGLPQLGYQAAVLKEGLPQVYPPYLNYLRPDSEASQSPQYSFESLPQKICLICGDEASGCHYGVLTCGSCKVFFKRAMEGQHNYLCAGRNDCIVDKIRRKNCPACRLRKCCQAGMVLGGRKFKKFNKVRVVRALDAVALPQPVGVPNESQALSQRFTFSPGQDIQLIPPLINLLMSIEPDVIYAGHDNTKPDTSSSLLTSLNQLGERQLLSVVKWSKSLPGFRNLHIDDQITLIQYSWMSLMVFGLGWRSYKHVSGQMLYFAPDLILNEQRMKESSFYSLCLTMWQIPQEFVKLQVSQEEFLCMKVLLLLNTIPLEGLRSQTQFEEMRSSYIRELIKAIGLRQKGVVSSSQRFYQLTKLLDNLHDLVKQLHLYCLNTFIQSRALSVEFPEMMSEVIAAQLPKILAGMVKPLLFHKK
In kind it is functional.

For test [2], the target named is T2, Neuropeptide Y receptor type 1 (Homo sapiens, UniProt P25929).
T2 sequence (P25929 whole entry): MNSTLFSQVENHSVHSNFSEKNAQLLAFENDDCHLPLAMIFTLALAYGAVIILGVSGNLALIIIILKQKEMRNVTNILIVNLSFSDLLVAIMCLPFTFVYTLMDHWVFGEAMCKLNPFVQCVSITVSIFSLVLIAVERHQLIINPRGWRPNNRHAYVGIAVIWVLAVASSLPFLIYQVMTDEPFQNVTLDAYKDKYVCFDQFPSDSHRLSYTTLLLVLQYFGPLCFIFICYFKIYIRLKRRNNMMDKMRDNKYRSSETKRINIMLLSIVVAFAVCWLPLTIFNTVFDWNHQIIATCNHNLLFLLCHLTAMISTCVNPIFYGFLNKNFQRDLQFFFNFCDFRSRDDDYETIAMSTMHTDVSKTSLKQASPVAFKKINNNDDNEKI

Test [3] addresses Histamine H2 receptor (Homo sapiens, UniProt P25021). Format: functional, cell-based.
The target of test [4] is Vasopressin V2 receptor (Homo sapiens, UniProt P30518).
Test [5] deals with Sodium-dependent serotonin transporter (Homo sapiens, UniProt P31645).
Test [6] concerns the target Histamine H1 receptor (Homo sapiens, UniProt P35367).
The target in test [7] is T3, Alpha-1A adrenergic receptor (Homo sapiens, UniProt P35348).
T3 sequence (P35348 whole entry): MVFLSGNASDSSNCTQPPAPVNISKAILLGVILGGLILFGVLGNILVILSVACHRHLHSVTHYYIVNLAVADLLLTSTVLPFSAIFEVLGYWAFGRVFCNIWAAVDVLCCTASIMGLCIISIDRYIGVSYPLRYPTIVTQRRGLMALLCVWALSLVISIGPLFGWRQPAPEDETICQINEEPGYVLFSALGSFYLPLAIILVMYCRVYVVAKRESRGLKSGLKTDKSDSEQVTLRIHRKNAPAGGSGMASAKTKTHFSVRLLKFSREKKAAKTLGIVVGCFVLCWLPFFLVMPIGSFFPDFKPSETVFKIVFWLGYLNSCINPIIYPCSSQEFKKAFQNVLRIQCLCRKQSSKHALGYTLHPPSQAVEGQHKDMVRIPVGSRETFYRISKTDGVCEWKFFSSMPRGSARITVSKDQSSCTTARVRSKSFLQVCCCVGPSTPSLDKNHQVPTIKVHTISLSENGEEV
Format: functional, cell-based.

The target of test [8] is Prothrombin (Homo sapiens, UniProt P00734). In kind it is functional.
For test [9], the target named is Sodium-dependent noradrenaline transporter (Homo sapiens, UniProt P23975).
For test [10], the target named is Prostaglandin G/H synthase 1 (Homo sapiens, UniProt P23219). In kind it is functional.
Test [11] addresses D(3) dopamine receptor (Homo sapiens, UniProt P35462).
Test [12] deals with cGMP-inhibited 3',5'-cyclic phosphodiesterase 3A (Homo sapiens, UniProt Q14432). In kind it is functional.
Also: assay procedure not described here.

Chain of Sodium-dependent serotonin transporter (P31645 whole entry): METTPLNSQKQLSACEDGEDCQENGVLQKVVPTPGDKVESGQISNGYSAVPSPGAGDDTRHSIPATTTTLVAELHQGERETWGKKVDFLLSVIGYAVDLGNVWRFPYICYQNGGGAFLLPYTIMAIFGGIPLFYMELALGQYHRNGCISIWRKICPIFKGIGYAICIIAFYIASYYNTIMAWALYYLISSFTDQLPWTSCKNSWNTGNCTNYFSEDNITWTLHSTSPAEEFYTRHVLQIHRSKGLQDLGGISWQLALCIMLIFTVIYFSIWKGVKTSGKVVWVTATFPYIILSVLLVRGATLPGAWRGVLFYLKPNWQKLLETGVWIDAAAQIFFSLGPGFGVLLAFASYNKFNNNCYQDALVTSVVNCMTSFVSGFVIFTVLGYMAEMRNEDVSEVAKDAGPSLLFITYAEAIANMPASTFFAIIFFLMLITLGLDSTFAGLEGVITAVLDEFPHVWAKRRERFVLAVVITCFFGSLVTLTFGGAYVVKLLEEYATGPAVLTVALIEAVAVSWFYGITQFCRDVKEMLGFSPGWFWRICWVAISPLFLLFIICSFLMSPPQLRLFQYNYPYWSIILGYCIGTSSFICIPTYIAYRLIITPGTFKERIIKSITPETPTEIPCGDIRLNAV
Chain of Prostaglandin G/H synthase 1 (P23219 whole entry): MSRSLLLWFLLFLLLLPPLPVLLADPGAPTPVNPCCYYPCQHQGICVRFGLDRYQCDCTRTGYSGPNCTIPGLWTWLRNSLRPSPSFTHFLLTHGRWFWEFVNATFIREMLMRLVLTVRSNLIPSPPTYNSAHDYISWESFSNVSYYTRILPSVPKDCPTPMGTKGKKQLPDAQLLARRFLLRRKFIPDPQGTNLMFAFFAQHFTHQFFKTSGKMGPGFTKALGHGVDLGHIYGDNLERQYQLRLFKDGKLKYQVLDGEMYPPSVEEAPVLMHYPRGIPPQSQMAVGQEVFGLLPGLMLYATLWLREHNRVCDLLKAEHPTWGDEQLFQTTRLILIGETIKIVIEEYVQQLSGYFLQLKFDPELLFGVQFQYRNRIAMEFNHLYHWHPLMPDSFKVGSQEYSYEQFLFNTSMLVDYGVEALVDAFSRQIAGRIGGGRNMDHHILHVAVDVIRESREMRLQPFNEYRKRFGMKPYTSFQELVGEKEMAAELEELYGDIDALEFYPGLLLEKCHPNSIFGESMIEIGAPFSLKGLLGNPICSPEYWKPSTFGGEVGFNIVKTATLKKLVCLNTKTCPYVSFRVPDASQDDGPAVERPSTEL
Chain of Sodium-dependent noradrenaline transporter (P23975 whole entry): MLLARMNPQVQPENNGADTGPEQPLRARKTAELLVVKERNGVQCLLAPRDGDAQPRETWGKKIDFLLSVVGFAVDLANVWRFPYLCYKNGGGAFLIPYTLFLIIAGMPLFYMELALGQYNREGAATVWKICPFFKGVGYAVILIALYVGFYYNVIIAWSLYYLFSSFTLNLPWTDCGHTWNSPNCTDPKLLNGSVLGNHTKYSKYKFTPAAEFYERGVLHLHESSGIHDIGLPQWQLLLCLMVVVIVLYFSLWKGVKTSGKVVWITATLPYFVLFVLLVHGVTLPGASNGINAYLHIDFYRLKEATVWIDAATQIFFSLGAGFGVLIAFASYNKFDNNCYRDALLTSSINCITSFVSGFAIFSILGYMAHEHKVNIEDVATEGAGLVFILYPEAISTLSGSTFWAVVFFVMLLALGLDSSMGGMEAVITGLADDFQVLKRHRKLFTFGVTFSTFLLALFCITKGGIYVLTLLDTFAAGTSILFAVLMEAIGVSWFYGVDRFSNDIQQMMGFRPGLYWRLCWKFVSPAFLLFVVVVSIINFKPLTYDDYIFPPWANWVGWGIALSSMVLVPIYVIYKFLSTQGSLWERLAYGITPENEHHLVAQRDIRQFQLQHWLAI
Chain of Histamine H2 receptor (P25021 whole entry): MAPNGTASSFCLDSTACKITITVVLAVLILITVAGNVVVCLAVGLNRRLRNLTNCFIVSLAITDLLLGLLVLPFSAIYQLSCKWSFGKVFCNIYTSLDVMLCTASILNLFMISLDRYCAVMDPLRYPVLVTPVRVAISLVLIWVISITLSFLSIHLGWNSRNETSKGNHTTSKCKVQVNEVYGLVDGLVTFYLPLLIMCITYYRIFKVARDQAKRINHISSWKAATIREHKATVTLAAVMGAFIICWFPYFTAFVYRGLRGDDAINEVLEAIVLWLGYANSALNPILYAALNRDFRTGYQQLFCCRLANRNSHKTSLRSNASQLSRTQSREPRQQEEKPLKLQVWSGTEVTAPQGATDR
Chain of D(3) dopamine receptor (P35462 whole entry): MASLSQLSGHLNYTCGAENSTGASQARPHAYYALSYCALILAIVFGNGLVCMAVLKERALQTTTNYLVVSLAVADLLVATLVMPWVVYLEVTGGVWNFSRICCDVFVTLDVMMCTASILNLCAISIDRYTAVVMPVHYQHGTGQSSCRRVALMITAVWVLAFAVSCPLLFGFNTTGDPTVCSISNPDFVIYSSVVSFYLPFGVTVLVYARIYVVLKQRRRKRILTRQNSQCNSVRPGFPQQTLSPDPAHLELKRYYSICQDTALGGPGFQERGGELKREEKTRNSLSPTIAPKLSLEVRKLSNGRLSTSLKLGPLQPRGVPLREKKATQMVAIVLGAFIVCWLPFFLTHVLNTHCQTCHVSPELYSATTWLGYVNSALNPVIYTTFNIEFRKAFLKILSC
Chain of Histamine H1 receptor (P35367 whole entry): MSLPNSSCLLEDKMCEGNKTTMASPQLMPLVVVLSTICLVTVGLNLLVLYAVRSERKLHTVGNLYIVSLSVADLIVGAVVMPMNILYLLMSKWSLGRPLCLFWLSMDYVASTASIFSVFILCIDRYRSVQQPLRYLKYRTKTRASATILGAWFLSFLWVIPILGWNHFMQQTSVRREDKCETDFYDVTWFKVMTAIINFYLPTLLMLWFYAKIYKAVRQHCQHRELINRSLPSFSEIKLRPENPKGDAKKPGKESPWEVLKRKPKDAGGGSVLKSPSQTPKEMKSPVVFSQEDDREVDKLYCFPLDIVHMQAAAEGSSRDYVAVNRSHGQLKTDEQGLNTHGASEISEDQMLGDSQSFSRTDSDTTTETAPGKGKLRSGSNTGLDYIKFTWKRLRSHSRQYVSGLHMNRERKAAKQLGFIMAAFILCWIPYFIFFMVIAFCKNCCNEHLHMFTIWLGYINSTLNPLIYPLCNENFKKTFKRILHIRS
Chain of Vasopressin V2 receptor (P30518 whole entry): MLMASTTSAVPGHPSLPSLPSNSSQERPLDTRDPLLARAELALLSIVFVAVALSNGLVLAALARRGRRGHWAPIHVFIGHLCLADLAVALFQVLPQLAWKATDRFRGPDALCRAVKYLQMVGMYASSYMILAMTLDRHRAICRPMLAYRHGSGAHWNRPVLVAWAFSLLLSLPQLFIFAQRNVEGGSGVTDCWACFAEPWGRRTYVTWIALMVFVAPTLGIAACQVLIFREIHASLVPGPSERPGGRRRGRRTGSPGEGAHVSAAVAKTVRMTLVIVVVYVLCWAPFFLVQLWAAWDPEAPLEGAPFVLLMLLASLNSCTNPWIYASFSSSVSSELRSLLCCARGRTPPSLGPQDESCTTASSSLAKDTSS
Chain of cGMP-inhibited 3',5'-cyclic phosphodiesterase 3A (Q14432 whole entry): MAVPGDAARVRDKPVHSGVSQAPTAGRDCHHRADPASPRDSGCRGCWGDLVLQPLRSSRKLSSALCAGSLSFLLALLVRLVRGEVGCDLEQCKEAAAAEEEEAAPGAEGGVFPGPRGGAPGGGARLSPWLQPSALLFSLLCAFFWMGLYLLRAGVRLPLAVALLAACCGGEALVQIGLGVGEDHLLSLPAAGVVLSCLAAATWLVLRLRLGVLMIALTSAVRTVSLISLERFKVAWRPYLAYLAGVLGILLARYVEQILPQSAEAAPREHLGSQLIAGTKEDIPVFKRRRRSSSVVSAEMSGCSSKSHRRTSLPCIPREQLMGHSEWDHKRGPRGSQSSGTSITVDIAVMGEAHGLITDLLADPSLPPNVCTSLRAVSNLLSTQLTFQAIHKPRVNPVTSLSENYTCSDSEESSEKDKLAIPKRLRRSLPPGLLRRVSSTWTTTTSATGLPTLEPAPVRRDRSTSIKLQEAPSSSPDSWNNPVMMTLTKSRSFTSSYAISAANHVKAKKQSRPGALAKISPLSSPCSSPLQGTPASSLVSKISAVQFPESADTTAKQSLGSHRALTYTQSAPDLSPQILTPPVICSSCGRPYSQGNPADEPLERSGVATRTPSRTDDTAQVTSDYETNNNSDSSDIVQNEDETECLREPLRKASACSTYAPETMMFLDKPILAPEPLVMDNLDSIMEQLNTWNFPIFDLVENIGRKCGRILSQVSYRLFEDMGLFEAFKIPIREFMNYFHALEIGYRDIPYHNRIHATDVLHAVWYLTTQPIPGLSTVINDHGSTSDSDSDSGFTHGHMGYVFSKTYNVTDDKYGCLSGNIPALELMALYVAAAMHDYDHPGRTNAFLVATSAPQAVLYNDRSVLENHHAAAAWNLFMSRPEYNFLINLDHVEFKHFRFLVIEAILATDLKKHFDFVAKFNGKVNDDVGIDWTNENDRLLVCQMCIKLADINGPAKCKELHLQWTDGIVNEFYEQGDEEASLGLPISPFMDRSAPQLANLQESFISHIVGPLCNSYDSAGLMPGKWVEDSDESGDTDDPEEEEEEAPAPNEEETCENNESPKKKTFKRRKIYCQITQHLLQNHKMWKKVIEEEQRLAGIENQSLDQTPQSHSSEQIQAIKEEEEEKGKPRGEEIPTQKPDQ

With `CO/N=C(\C(=O)N[C@@H]1C(=O)N2C(C(=O)[O-])=C(C[N+]3(C)CCCC3)CS[C@H]12)c1csc(N)n1`, the AC50 (commonly the midpoint of the concentration-response curve, whichever way the signal moves) in test [1] is greater than 300 µM; in test [2] it was greater than 30 µM; in test [3], greater than 30 µM; in test [4], greater than 30 µM; in test [5] it was greater than 300 µM; in test [6], greater than 300 µM. This compound yielded an AC50 in test [7] greater than 300 µM.

Regarding `COC(=O)N[C@H](C(=O)N1CCC[C@H]1c1nc(-c2ccc(-c3ccc(-c4c[nH]c([C@@H]5CCCN5C(=O)[C@@H](NC(=O)OC)C(C)C)n4)cc3)cc2)c[nH]1)C(C)C`, the AC50 in test [1], in test [2], in [3], in [4], in test [5] and in [6] was greater than 30 µM in each case. This compound also gave an AC50 in test [7] greater than 30 µM.

Turning to `CC(=O)c1ccc2c(c1)N(CCCN1CCN(CCO)CC1)c1ccccc1S2` [ACETOPHENAZINE], the AC50 was greater than 30 µM in [1], 17 µM in [5], 0.049 µM in test [6] and 0.0045 µM in [7].

`COC(=O)N[C@H](C(=O)N[C@@H](Cc1ccccc1)[C@@H](O)CN(Cc1ccc(-c2ccccn2)cc1)NC(=O)[C@@H](NC(=O)OC)C(C)(C)C)C(C)(C)C` [ATAZANAVIR]: the AC50 in test [1] was greater than 30 µM; in test [2], greater than 30 µM; in test [3], greater than 10 µM; in test [4] it was greater than 30 µM; in [5] it was greater than 30 µM; in [6] it was greater than 10 µM.

As for `COc1cc(Nc2c(C#N)cnc3cc(OCCCN4CCN(C)CC4)c(OC)cc23)c(Cl)cc1Cl` [BOSUTINIB], the AC50 in test [8] is greater than 30 µM; in test [2] it was greater than 30 µM; in test [9], 24.1 µM; in test [10] it was greater than 30 µM; in [11], 3.01 µM; in test [12], greater than 30 µM. Also, the AC50 in [5] is 11 µM; in [6], greater than 10 µM.

On to `N[C@@H](C(=O)N[C@@H]1C(=O)N2C(C(=O)O)=C(Cl)CS[C@H]12)c1ccccc1` [CEFACLOR ANHYDROUS], for which the AC50 in [1], in [2], in test [3], in [4], in test [5] and in test [6] was greater than 30 µM throughout. In test [7], this compound yielded an AC50 greater than 30 µM.

As to `COC(=O)[C@@H]1CC2=CC(=O)CC[C@]2(C)[C@@]23O[C@@H]2C[C@@]2(C)[C@@H](CC[C@@]24CCC(=O)O4)[C@H]13` [EPLERENONE], the AC50 in [2] was greater than 30 µM; in test [3] it was greater than 10 µM; in [4], greater than 30 µM; in [5], greater than 30 µM; in [6], greater than 30 µM; in [7], greater than 30 µM.

As to `C[C@@H]1O[C@@H]1P(=O)(O)O` [FOSFOMYCIN], the AC50 in test [1] is greater than 30 µM; in test [2], greater than 10 µM; in test [3], greater than 10 µM; in test [4], greater than 10 µM; in [5] it was greater than 10 µM; in [6], greater than 10 µM.

Turning to `COc1ccc2c(c1)C(=O)N(CCc1ccc(S(=O)(=O)NC(=O)NC3CCCCC3)cc1)C(=O)C2(C)C` [GLIQUIDONE], the concentration at half-maximal activity (AC50) in test [1], in [2], in test [3], in test [4], in [5] and in [6] was greater than 30 µM throughout. This compound also gave an AC50 in test [7] greater than 30 µM.

Consider `CC(C)Cc1ccc(CC(=O)O)cc1` [IBUFENAC], for which the AC50 in [1], in test [5], in test [6] and in [7] was greater than 30 µM in each case.

For the compound `CN1C(=O)CC(C)(c2ccccc2)C1=O` (stereo unspecified) [METHSUXIMIDE], the AC50 in [1] was greater than 10 µM; in test [2], greater than 10 µM; in test [3] it was greater than 30 µM; in test [4], greater than 10 µM; in test [5] it was greater than 10 µM; in [6] it was greater than 10 µM.

`NC(=O)c1ncn([C@@H]2O[C@H](CO)[C@@H](O)[C@H]2O)c1O` [MIZORIBINE]: the AC50 in [1], in test [2], in test [3], in [4], in [5] and in [6] was greater than 30 µM each time. In test [7], this compound gave an AC50 greater than 30 µM.

As for `OCCN1CCN(CCCN2c3ccccc3C=Cc3ccccc32)CC1` [OPIPRAMOL], the half-maximal activity concentration (AC50) in test [8] was greater than 30 µM; in [1], greater than 30 µM; in [2], greater than 30 µM; in test [9], 6.62 µM; in test [10] it was 27.5 µM; in [3] it was greater than 30 µM. For the same compound, the AC50 was 0.42 µM in test [11]; greater than 30 µM in test [12]; greater than 30 µM in test [4]; greater than 30 µM in test [5]; 0.081 µM in test [6]; 14 µM in test [7].

`O=C(NC[C@H]1CN(c2ccc(N3CCOCC3=O)cc2)C(=O)O1)c1ccc(Cl)s1` [RIVAROXABAN]: the AC50 in test [1], in test [9], in test [10], in test [11], in [12] and in test [5] was greater than 30 µM in each case. The AC50 in test [6] and in test [7] was greater than 30 µM throughout.

Consider `CC(C(=O)O)c1ccc(C(=O)c2cccs2)cc1` (stereo unspecified) [SUPROFEN], for which the AC50 in test [1], in test [2], in [3], in test [4], in test [5] and in test [6] was greater than 10 µM each time.

Regarding `Cc1ccc(C(=O)c2cc(O)c(O)c([N+](=O)[O-])c2)cc1` [TOLCAPONE], the AC50 in test [1] was greater than 30 µM; in test [2] it was greater than 10 µM; in test [3], greater than 10 µM; in test [4], greater than 10 µM; in test [5], greater than 30 µM; in test [6] it was greater than 10 µM.

With `CCCS(=O)(=O)Nc1ccc(F)c(C(=O)c2c[nH]c3ncc(-c4ccc(Cl)cc4)cc23)c1F` [VEMURAFENIB], the AC50 in [1] was 23 µM; in test [2], greater than 30 µM; in [3] it was greater than 30 µM; in test [4] it was greater than 30 µM; in test [5], greater than 30 µM; in test [6], greater than 30 µM. In addition, in [7], the AC50 is greater than 30 µM.

With `O=C(CCCCCCC(=O)Nc1ccccc1)NO` [VORINOSTAT], the concentration at half-maximal activity (AC50) in test [1], in test [2], in [3], in [4], in test [5] and in test [6] was greater than 30 µM in each case. Besides, the AC50 in [7] is greater than 30 µM.
